Reference: US10865204B2, “Degradation of cyclin-dependent kinase 4/6 (CDK4/6) by conjugation of CDK4/6 inhibitors with E3 ligase ligand and methods of use” (Dana-Farber Cancer Institute, Inc., priority 2016, dated 2020)

Legend:
CDK4 [1] = biological target: T1, CDK4 (Homo sapiens, UniProt P11802); assay: Enzyme degradation assay (western blot), Jurkat cells, CDK4; assay type: cell-based; set-up: levels of CDK4, CDK6, and tubulin in wild-type (WT) or cereblon knockout (CRBN−/−) Molt4 cells; endogenous in cells; conditions: 5 μM, various time points, FIG. 1
T1 sequence (P11802 whole entry): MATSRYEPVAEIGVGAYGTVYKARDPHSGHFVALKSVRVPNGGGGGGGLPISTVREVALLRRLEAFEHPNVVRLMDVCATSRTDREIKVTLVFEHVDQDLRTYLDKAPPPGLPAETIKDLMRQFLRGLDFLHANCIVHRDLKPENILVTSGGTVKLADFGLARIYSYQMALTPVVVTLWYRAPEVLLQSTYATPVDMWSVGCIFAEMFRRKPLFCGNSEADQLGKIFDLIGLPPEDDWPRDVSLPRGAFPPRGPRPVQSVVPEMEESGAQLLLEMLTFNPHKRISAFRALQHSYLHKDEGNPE
Description: (§1) Lysates are then cleared by centrifugation.
(§2) Lysates were then cleared by centrifugation.

CDK4 [2] = biological target: T1, CDK4; assay: Enzyme degradation assay (western blot), Molt4 wild-type cells, CDK4; assay type: cell-based; set-up: levels of CDK4, CDK6, and tubulin in wild-type (WT) or cereblon knockout (CRBN−/−) Molt4 cells; endogenous in cells; host or cells: Molt4 cells, wild-type or cereblon knockout (CRBN-/-); conditions: wild-type (WT) Molt4 cells, various concentrations, FIG. 2
Description: as §1, §2

**Q.** Which “levels of CDK4 (western blot)” value (CDK4 [1]) does the source give for `CC(=O)c1c(C)c2cnc(Nc3ccc(N4CCN(CC(=O)NCCOCCOCCOCCNc5cccc6c5C(=O)N(C5CCC(=O)NC5=O)C6=O)CC4)cn3)nc2n(C2CCCC2)c1=O` (centres unmarked) [Compound I-3, 2-(4-(6-((6-acetyl-8-cyclopentyl-5-methyl-7-oxo-7,8-dihydropyrido[2,3-d]pyrimidin-2-yl)amino)pyridin-3-yl)piperazin-1-yl)-N-(2-(2-(2-(2-((2-(2,6-dioxopiperidin-3-yl)-1,3-dioxoisoindolin-4-yl)amino)ethoxy)ethoxy)ethoxy)ethyl)acetamide] here?
**A.** Its value is “unaffected”.

**Q.** And the “levels of CDK4 (western blot)” value (CDK4 [2])?
**A.** Its value is “unaffected”.
